Results: patent US8247211B2, “Glycopeptide antibiotics” (American Cyanamid Company, priority 2001, dated 2012)
Values after ≈ are worked out from the molar mass of the structure shown.

Legend:
Assay in all cases: In vitro antibacterial evaluation: minimum inhibitory concentration (MIC), broth dilution method
Format in all cases: cell-based
[1] = tested on: Enterococcus sp.; conditions: 18 hours at 35° C.
Outline: (§1)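 Values are minimum inhibitory concentrations, meaning the smallest antibiotic concentration that stops growth of the organism. They come from broth dilution in Muller-Hinton II […] per NCCLS guidance (M7-A2), using 5×10^5 CFU/mL and concentrations from 64 to 0.06 μg/mL.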

[2] = tested on: Escherichia coli; conditions: 18 hours at 35° C.
Outline: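 Broth dilution per NCCLS M7-A2 in Muller-Hinton II […], inoculum 5×10^5 CFU/mL, antibiotic tested over 64-0.06 μg/mL. MIC is taken as the lowest concentration that inhibits growth. Panel includes recent clinical isolates resistant to methicillin, penicillin and/or vancomycin.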

[3] = tested on: Staphylococcus sp.
Outline: as §1

[4] = tested on: Streptococcus sp.; conditions: 18 hours at 35° C.
Outline: as §1

[5] = broth dilution, inoculum 5×10^5 CFU/mL

## N=C1NCC(C(O)C2NC(=O)C(CC3CCC(OC4OC(CO)C(OC5OC6COC7(OC6C(O)C5O)C5CC6CC(C5)CC7C6)C(O)C4O)CC3)NC(=O)C(CC3CCCCC3)NC(=O)CNC(=O)C(CO)NC(=O)C(C(O)C3CNC(=N)N3C3OC(CO)C(O)C(O)C3O)NC2=O)N1 (stereo not drawn) [Example 222]
[1]; Enterococcus avium (GC 4558)
  MIC Enterococcus avium (GC 4558): 64 µg/mL (≈ 44.9 µM)
[1]; Enterococcus faecalis (ATCC 29212)
  MIC Enterococcus faecalis (ATCC 29212): >64 µg/mL
[1]; Enterococcus faecalis (GC 2242)
  MIC Enterococcus faecalis (GC 2242): >64 µg/mL
[1]; Enterococcus faecalis (GC 2691)
  MIC Enterococcus faecalis (GC 2691): >64 µg/mL
[1]; Enterococcus faecalis (GC 3059)
  MIC Enterococcus faecalis (GC 3059): >64 µg/mL
[1]; Enterococcus faecalis (GC 4552)
  MIC Enterococcus faecalis (GC 4552): >64 µg/mL
[1]; Enterococcus faecalis (GC 4553)
  MIC Enterococcus faecalis (GC 4553): >64 µg/mL
[1]; Enterococcus faecalis (GC 4554)
  MIC Enterococcus faecalis (GC 4554): >64 µg/mL
[1]; Enterococcus faecalis (GC 6189)
  MIC Enterococcus faecalis (GC 6189): >64 µg/mL
[1]; Enterococcus faecium (GC 2243)
  MIC Enterococcus faecium (GC 2243): >64 µg/mL
[1]; Enterococcus faecium (GC 4556)
  MIC Enterococcus faecium (GC 4556): >64 µg/mL
[1]; Enterococcus faecium (GC 4557)
  MIC Enterococcus faecium (GC 4557): 64 µg/mL (≈ 44.9 µM)
[1]; [5]
  MIC Enterococcus avium (GC 4558): 64 µg/mL (≈ 44.9 µM)
  MIC Enterococcus faecalis (ATCC 29212): >64 µg/mL
  MIC Enterococcus faecalis (GC 2242): >64 µg/mL
  MIC Enterococcus faecalis (GC 2691): >64 µg/mL
  MIC Enterococcus faecalis (GC 3059): >64 µg/mL
  MIC Enterococcus faecalis (GC 4552): >64 µg/mL
  MIC Enterococcus faecalis (GC 4553): >64 µg/mL
  MIC Enterococcus faecalis (GC 4554): >64 µg/mL
  MIC Enterococcus faecalis (GC 6189): >64 µg/mL
  MIC Enterococcus faecium (GC 2243): >64 µg/mL
  MIC Enterococcus faecium (GC 4556): >64 µg/mL
  MIC Enterococcus faecium (GC 4557): 64 µg/mL (≈ 44.9 µM)
[2]; Escherichia coli (ATCC 25922)
  MIC Escherichia coli (ATCC 25922): >64 µg/mL
[2]; Escherichia coli (GC 4559)
  MIC Escherichia coli (GC 4559): >64 µg/mL
[2]; Escherichia coli (GC 4560)
  MIC Escherichia coli (GC 4560): 64 µg/mL (≈ 44.9 µM)
[3]; strain ATCC 29213
  MIC Staphylococcus aureus (ATCC 29213): >64 µg/mL
[3]; strain GC 1131
  MIC Staphylococcus aureus (GC 1131): >64 µg/mL
[3]; strain GC 3051
  MIC Staphylococcus aureus (GC 3051): >64 µg/mL
[3]; strain GC 3053
  MIC Staphylococcus aureus (GC 3053): >64 µg/mL
[3]; strain GC 4541
  MIC Staphylococcus aureus (GC 4541): >64 µg/mL
[3]; strain GC 4542
  MIC Staphylococcus aureus (GC 4542): >64 µg/mL
[3]; strain GC 4543
  MIC Staphylococcus aureus-SMITH (GC 4543): >64 µg/mL
[3]; strain GC 4544
  MIC Staphylococcus aureus (GC 4544): >64 µg/mL
[3]; strain GC 4545
  MIC Staphylococcus aureus (GC 4545): >64 µg/mL
[3]; strain GC 4546
  MIC Staphylococcus haemolyticus (GC 4546): >64 µg/mL
[3]; strain GC 4547
  MIC Coagulase Negative Staphylococcus (GC 4547): >64 µg/mL
[3]; strain GC 4548
  MIC Coagulase Negative Staphylococcus (GC 4548): >64 µg/mL
[3]; strain GC 4549
  MIC Coagulase Negative Staphylococcus (GC 4549): >64 µg/mL
[3]; strain GC 4551
  MIC Coagulase Negative Staphylococcus (GC 4551): >64 µg/mL
[4]; Streptococcus agalactiae (GC 4564)
  MIC Streptococcus agalactiae (GC 4564): >64 µg/mL
[4]; Streptococcus pneumoniae (ATCC 6301)
  MIC Streptococcus pneumoniae (ATCC 6301): 64 µg/mL (≈ 44.9 µM)
[4]; Streptococcus pneumoniae (GC 1894)
  MIC Streptococcus pneumoniae (GC 1894): 32 µg/mL (≈ 22.4 µM)
[4]; Streptococcus pneumoniae (GC 4565)
  MIC Streptococcus pneumoniae (GC 4565): 64 µg/mL (≈ 44.9 µM)
[4]; Streptococcus pyogenes (GC 4563)
  MIC Streptococcus pyogenes (GC 4563): 64 µg/mL (≈ 44.9 µM)
[4]; [5]
  MIC Streptococcus agalactiae (GC 4564): >64 µg/mL
  MIC Streptococcus pneumoniae (ATCC 6301): 64 µg/mL (≈ 44.9 µM)
  MIC Streptococcus pneumoniae (GC 1894): 32 µg/mL (≈ 22.4 µM)
  MIC Streptococcus pneumoniae (GC 4565): 64 µg/mL (≈ 44.9 µM)
  MIC Streptococcus pyogenes (GC 4563): 64 µg/mL (≈ 44.9 µM)
